Experimental data: patent US20010025053A1, “Use of nitric oxid synthase inhibitors for the treatment of diabetes” (Smith Kline Beecham p.l.c., priority 1997, published 2001)

Test system: obese db/db mouse
Assay: obese db/db mouse model of type 2 non-insulin dependent diabetes
Format: in vivo
Conditions: obese db/db mice
Text: The obese db/db mouse is a genetic model of type 2 non-insulin dependent diabetes which is both insulin resistant and hyperglycaemic. Male animals were obtained at 6 weeks of age. Blood samples were taken by tail tip snip for measurement of pre-treatment blood glucose. Animals were allocated into treated and control groups such that the mean and standard deviation of the fasting blood glucose concentrations of each group was similar.
On day 0 of the study a group of obese animals and their lean litter mates were killed for measurement of baseline biochemistry and histology. In addition one group of animals (control; n=14) were fed a standard diet and a further group received aminoguanidine (500 mg/kg; n=14) in the same diet. Animals were allowed free access to food and water and their intake measured daily. At weekly intervals 24 hr urine output was also measured. Mice (n=7) were killed at 30 days and 85 days from commencement of treatment. Blood was taken for measurement of glucose and insulin concentrations and the pancreas removed for histological analysis and for measurement of pancreatic insulin.

[1] = from day 63 compared to day 7, FIG. 1

N=C(N)NN [Aminoguanidine, Hydrazinecarboximidamide]
islet morphology (day 30 of treatment, histology): normal islet morphology was preserved | islet insulin content (day 30 of treatment, vs untreated controls): greater | urinary glucose excretion (from day 35, vs untreated, FIG. 1): lower | increase in urine output (polyuria) [1]: prevented | increase in water intake (polydipsia) [1]: prevented | pancreatic insulin content relative to untreated animals (treated vs untreated): twice that of the untreated animals
